Reference: ChEMBL document CHEMBL4507294, “Data for DCP probe MSD-CYP11B2” (2021)

Assays:
[1] = molecular target: Calcium/calmodulin-dependent protein kinase type IV (Homo sapiens) (UniProt Q16566); conditions: Compound concentration 1000.0 nM
[2] = molecular target: Serine/threonine-protein kinase DCLK2 (Homo sapiens) (UniProt Q8N568); conditions: Compound concentration 1000.0 nM
[3] = molecular target: Mitogen-activated protein kinase kinase kinase 10 (Homo sapiens) (UniProt Q02779); conditions: Compound concentration 1000.0 nM
[4] = molecular target: Ribosomal protein S6 kinase alpha-3 (Homo sapiens) (UniProt P51812); conditions: Compound concentration 1000.0 nM
[5] = molecular target: Serine/threonine-protein kinase Nek11 (Homo sapiens) (UniProt Q8NG66); conditions: Compound concentration 1000.0 nM
[6] = molecular target: Mitogen-activated protein kinase kinase kinase 15 (Homo sapiens) (UniProt Q6ZN16); conditions: Compound concentration 1000.0 nM
Chain of Mitogen-activated protein kinase kinase kinase 15 (Homo sapiens) (Q6ZN16 whole entry): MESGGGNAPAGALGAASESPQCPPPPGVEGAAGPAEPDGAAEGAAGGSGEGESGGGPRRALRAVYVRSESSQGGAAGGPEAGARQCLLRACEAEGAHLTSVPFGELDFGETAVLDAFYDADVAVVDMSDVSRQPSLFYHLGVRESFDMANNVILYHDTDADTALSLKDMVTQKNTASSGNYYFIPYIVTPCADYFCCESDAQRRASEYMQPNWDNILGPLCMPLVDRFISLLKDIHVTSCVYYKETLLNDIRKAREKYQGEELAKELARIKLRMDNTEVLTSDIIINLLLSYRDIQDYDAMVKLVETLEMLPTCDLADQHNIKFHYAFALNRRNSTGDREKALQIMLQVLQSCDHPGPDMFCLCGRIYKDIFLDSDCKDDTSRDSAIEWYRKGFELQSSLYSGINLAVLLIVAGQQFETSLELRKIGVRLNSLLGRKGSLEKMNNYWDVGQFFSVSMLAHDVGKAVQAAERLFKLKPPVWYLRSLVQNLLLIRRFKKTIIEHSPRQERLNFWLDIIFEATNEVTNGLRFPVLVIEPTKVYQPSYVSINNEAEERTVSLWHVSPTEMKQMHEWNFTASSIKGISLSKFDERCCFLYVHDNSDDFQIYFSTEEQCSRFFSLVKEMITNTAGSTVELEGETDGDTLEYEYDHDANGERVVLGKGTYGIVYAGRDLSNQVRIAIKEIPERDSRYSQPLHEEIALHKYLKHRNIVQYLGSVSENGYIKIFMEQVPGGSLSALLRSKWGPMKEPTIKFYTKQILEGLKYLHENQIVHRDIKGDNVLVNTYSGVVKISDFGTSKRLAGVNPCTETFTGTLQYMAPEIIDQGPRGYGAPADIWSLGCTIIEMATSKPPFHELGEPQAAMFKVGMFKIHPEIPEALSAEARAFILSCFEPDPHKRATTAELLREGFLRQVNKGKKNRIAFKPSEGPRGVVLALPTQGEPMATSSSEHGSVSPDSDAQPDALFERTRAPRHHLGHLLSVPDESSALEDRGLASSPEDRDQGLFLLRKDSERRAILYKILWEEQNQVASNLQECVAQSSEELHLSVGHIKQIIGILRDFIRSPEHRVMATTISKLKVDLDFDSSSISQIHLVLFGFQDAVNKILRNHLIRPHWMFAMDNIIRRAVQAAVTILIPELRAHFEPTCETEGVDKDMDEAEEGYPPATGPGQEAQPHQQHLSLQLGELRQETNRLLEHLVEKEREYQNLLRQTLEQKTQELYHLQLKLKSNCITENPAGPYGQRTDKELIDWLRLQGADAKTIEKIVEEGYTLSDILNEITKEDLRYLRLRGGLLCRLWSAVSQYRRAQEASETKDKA

[7] = molecular target: Bone morphogenetic protein receptor type-2 (Homo sapiens) (UniProt Q13873); conditions: Compound concentration 1000.0 nM
[8] = molecular target: Proto-oncogene tyrosine-protein kinase receptor Ret (Homo sapiens) (UniProt P07949); conditions: Compound concentration 1000.0 nM
[9] = molecular target: Beta-1 adrenergic receptor (Homo sapiens, UniProt P08588); conditions: Compound concentration 10.0 uM
[10] = molecular target: Phosphatidylinositol 4-phosphate 5-kinase type-1 gamma (Homo sapiens) (UniProt O60331); conditions: Compound concentration 1000.0 nM
[11] = molecular target: Mitogen-activated protein kinase kinase kinase kinase 2 (Homo sapiens) (UniProt Q12851); conditions: Compound concentration 1000.0 nM
[12] = molecular target: Serine/threonine-protein kinase 32C (Homo sapiens) (UniProt Q86UX6); conditions: Compound concentration 1000.0 nM
Chain of Serine/threonine-protein kinase 32C (Homo sapiens) (Q86UX6 whole entry): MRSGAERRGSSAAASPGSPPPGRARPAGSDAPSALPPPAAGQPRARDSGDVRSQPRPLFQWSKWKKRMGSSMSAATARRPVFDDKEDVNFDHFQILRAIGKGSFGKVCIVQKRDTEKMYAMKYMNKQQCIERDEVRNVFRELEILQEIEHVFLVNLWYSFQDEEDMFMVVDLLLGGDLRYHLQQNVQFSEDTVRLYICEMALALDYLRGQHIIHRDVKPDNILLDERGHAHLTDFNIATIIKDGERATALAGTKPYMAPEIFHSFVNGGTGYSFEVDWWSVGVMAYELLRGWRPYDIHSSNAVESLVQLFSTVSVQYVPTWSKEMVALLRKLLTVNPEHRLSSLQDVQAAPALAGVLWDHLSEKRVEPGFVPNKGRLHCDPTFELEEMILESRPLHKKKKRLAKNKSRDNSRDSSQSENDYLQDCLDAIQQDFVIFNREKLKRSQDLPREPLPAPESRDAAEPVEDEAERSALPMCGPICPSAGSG

[13] = system: Receptor-type tyrosine-protein kinase FLT3 (Homo sapiens), P36888 [D835V]; conditions: Compound concentration 1000.0 nM
[14] = molecular target: Ephrin type-A receptor 6 (Homo sapiens) (UniProt Q9UF33); conditions: Compound concentration 1000.0 nM
[15] = molecular target: Interleukin-1 receptor-associated kinase 4 (Homo sapiens) (UniProt Q9NWZ3); conditions: Compound concentration 1000.0 nM
Chain of Interleukin-1 receptor-associated kinase 4 (Homo sapiens) (Q9NWZ3 whole entry): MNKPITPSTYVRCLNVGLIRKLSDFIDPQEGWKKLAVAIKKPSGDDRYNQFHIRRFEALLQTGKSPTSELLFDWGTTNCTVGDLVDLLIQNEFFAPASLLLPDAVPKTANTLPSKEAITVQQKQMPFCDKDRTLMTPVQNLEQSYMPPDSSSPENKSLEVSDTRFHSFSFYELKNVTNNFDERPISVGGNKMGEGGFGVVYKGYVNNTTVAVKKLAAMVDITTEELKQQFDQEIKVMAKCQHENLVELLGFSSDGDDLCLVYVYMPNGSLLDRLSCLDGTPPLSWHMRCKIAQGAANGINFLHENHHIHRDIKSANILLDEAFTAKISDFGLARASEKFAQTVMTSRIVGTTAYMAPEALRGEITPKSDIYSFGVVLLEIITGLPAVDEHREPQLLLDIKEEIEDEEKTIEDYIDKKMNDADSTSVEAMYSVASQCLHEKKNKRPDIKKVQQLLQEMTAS

[16] = molecular target: MAP/microtubule affinity-regulating kinase 4 (Homo sapiens) (UniProt Q96L34); conditions: Compound concentration 1000.0 nM
[17] = system: Mast/stem cell growth factor receptor Kit (Homo sapiens), P10721 [V559D]; conditions: Compound concentration 1000.0 nM
[18] = molecular target: Myosin light chain kinase, smooth muscle (Homo sapiens) (UniProt Q15746); conditions: Compound concentration 1000.0 nM
[19] = molecular target: Rhodopsin kinase GRK1 (Homo sapiens) (UniProt Q15835); conditions: Compound concentration 1000.0 nM
[20] = molecular target: Platelet-derived growth factor receptor alpha (Homo sapiens) (UniProt P16234); conditions: Compound concentration 1000.0 nM
[21] = molecular target: Ribosomal protein S6 kinase alpha-2 (Homo sapiens) (UniProt Q15349); conditions: Compound concentration 1000.0 nM
[22] = molecular target: Receptor-interacting serine/threonine-protein kinase 1 (Homo sapiens) (UniProt Q13546); conditions: Compound concentration 1000.0 nM
Chain of Receptor-interacting serine/threonine-protein kinase 1 (Homo sapiens) (Q13546 whole entry): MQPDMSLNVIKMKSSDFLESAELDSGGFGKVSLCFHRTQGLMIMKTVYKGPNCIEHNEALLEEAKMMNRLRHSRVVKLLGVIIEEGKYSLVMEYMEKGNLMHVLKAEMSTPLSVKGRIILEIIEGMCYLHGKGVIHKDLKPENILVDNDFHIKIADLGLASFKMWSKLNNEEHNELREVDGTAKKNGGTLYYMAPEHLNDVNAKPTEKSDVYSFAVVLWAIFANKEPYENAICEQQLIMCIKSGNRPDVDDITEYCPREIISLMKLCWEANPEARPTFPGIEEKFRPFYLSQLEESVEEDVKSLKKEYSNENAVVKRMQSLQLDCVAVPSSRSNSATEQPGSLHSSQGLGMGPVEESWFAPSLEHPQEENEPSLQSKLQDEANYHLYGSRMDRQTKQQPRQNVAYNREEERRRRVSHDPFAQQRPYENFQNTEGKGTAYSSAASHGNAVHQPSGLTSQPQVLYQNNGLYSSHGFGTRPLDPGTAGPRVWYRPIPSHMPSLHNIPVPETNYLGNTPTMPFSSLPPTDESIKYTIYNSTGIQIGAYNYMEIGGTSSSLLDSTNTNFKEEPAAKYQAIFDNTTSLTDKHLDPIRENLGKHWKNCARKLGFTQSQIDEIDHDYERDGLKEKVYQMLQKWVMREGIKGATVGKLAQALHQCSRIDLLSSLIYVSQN

[23] = molecular target: Protein kinase C delta type (Homo sapiens) (UniProt Q05655); conditions: Compound concentration 1000.0 nM
[24] = molecular target: Serine/threonine-protein kinase 33 (Homo sapiens) (UniProt Q9BYT3); conditions: Compound concentration 1000.0 nM
[25] = molecular target: Calcium/calmodulin-dependent protein kinase type 1B (Homo sapiens) (UniProt Q6P2M8); conditions: Compound concentration 1000.0 nM
[26] = molecular target: Mitogen-activated protein kinase kinase kinase 13 (Homo sapiens) (UniProt O43283); conditions: Compound concentration 1000.0 nM
[27] = molecular target: Myosin-IIIb (Homo sapiens) (UniProt Q8WXR4); conditions: Compound concentration 1000.0 nM
[28] = molecular target: Testis-specific serine/threonine-protein kinase 1 (Homo sapiens) (UniProt Q9BXA7); conditions: Compound concentration 1000.0 nM
[29] = molecular target: Platelet-derived growth factor receptor beta (Homo sapiens) (UniProt P09619); conditions: Compound concentration 1000.0 nM
[30] = system: Fibroblast growth factor receptor 3 (Homo sapiens), P22607 [G697C]; conditions: Compound concentration 1000.0 nM
[31] = molecular target: Receptor tyrosine-protein kinase erbB-3 (Homo sapiens) (UniProt P21860); conditions: Compound concentration 1000.0 nM
[32] = molecular target: Serine/threonine-protein kinase TAO1 (Homo sapiens) (UniProt Q7L7X3); conditions: Compound concentration 1000.0 nM
[33] = molecular target: Phosphorylase b kinase regulatory subunit alpha, liver isoform (Homo sapiens) (UniProt P46019); conditions: Compound concentration 1000.0 nM
[34] = molecular target: Ephrin type-B receptor 6 (Homo sapiens) (UniProt O15197); conditions: Compound concentration 1000.0 nM
Chain of Ephrin type-B receptor 6 (Homo sapiens) (O15197 whole entry): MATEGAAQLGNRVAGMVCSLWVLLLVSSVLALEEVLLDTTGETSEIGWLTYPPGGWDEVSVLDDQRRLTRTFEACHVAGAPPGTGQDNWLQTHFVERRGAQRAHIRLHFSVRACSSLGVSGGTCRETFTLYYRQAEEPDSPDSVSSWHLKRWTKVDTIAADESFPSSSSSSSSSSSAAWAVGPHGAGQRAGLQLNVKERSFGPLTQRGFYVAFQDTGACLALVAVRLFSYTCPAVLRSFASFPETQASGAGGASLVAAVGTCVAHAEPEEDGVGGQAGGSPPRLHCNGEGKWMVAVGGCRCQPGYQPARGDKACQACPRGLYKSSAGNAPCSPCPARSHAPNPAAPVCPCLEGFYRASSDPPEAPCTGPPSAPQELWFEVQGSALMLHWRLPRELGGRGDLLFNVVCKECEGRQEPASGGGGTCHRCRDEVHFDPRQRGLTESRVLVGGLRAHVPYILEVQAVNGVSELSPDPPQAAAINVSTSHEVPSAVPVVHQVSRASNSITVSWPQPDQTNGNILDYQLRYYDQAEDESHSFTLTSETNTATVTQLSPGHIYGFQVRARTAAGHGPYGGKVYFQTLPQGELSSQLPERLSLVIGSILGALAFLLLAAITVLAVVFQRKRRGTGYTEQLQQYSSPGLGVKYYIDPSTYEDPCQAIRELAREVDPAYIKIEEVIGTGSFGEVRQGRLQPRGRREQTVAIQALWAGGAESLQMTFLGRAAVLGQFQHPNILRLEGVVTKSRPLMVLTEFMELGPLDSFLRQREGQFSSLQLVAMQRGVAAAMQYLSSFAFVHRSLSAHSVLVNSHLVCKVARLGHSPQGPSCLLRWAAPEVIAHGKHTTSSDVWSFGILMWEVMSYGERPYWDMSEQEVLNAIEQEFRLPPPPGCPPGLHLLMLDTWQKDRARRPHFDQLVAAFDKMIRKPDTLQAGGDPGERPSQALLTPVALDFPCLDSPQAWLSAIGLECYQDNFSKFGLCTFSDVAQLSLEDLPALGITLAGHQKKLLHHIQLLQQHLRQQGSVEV

[35] = molecular target: Calcium/calmodulin-dependent protein kinase type 1D (Homo sapiens) (UniProt Q8IU85); conditions: Compound concentration 1000.0 nM
[36] = molecular target: Phosphatidylinositol 4-phosphate 5-kinase type-1 alpha (Homo sapiens) (UniProt Q99755); conditions: Compound concentration 1000.0 nM
Chain of Phosphatidylinositol 4-phosphate 5-kinase type-1 alpha (Homo sapiens) (Q99755 whole entry): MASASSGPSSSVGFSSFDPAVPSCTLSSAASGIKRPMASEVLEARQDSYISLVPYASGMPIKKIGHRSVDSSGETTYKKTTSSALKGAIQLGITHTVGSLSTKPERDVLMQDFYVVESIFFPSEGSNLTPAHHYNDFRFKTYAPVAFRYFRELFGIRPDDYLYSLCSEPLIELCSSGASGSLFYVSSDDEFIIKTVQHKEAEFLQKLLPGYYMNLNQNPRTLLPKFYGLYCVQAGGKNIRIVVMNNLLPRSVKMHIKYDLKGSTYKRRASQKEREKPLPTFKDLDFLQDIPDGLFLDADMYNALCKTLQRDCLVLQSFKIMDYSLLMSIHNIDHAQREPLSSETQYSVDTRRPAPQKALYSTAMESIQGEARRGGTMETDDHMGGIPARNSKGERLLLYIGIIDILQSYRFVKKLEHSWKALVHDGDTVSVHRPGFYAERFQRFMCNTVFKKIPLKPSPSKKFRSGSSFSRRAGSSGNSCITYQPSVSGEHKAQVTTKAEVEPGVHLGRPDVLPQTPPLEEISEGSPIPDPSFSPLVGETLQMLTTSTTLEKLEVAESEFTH

[37] = molecular target: Cyclin-G-associated kinase (Homo sapiens) (UniProt O14976); conditions: Compound concentration 1000.0 nM
[38] = molecular target: Mitogen-activated protein kinase kinase kinase 12 (Homo sapiens) (UniProt Q12852); conditions: Compound concentration 1000.0 nM
[39] = molecular target: Serine/threonine-protein kinase PAK 5 (Homo sapiens) (UniProt Q9P286); conditions: Compound concentration 1000.0 nM
[40] = molecular target: Eukaryotic translation initiation factor 2-alpha kinase 1 (Homo sapiens) (UniProt Q9BQI3); conditions: Compound concentration 1000.0 nM
[41] = system: Mast/stem cell growth factor receptor Kit (Homo sapiens), P10721 [A829P]; conditions: Compound concentration 1000.0 nM
[42] = molecular target: Cyclin-dependent kinase 4 (Homo sapiens) (UniProt P11802); conditions: Compound concentration 1000.0 nM
[43] = molecular target: Mu-type opioid receptor (Homo sapiens) (UniProt P35372); conditions: Compound concentration 10.0 uM
[44] = molecular target: Ribosomal protein S6 kinase alpha-6 (Homo sapiens) (UniProt Q9UK32); conditions: Compound concentration 1000.0 nM
[45] = molecular target: Dual specificity mitogen-activated protein kinase kinase 2 (Homo sapiens) (UniProt P36507); conditions: Compound concentration 1000.0 nM

Chain of Calcium/calmodulin-dependent protein kinase type IV (Homo sapiens) (Q16566 whole entry): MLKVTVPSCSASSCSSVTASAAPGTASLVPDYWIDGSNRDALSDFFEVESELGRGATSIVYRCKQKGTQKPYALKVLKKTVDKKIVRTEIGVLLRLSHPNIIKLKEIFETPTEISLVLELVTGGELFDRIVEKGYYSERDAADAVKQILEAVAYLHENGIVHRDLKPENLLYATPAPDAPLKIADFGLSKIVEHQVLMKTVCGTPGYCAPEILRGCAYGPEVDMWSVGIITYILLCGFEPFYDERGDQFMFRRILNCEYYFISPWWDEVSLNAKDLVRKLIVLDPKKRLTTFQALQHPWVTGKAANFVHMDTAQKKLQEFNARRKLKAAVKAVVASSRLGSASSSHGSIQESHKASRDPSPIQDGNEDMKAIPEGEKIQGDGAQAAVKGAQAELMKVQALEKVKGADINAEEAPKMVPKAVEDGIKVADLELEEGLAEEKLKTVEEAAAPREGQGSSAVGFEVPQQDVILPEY

CC(C)(O)c1cncc(-c2nc3ccc(F)cc3n2C2CC2)c1 [MSD-CYP11B2]
active: inhibition [9] 59.4%
inactive: residual activity [1] 100% | residual activity [2] 100% | residual activity [3] 100% | residual activity [4] 69% | residual activity [5] 100% | residual activity [6] 100% | residual activity [7] 100% | residual activity [8] 100% | residual activity [10] 100% | residual activity [11] 98% | residual activity [12] 100% | residual activity [13] 96% | residual activity [14] 100% | residual activity [15] 100% | residual activity [16] 100% | residual activity [17] 100% | residual activity [18] 80% | residual activity [19] 100% | residual activity [20] 100% | residual activity [21] 100% | residual activity [22] 100% | residual activity [23] 100% | residual activity [24] 100% | residual activity [25] 100% | residual activity [26] 100% | residual activity [27] 71% | residual activity [28] 97% | residual activity [29] 100% | residual activity [30] 100% | residual activity [31] 80% | residual activity [32] 100% | residual activity [33] 100% | residual activity [34] 100% | residual activity [35] 100% | residual activity [36] 76% | residual activity [37] 100% | residual activity [38] 100% | residual activity [39] 100% | residual activity [40] 100% | residual activity [41] 100% | residual activity [42] 100% | inhibition [43] 0.18% | residual activity [44] 100% | residual activity [45] 100%

FC(F)(F)c1ccc2c(c1)nc(-c1cccnc1)n2C1CC1 [MSD-CYP11B2-Negative-control]
inactive: residual activity [1] 100% | residual activity [2] 100% | residual activity [3] 100% | residual activity [4] 71% | residual activity [5] 100% | residual activity [6] 100% | residual activity [7] 100% | residual activity [8] 99% | inhibition [9] 13.4% | residual activity [10] 85% | residual activity [11] 73% | residual activity [12] 100% | residual activity [13] 92% | residual activity [14] 100% | residual activity [15] 100% | residual activity [16] 100% | residual activity [17] 100% | residual activity [18] 100% | residual activity [19] 100% | residual activity [20] 100% | residual activity [21] 100% | residual activity [22] 100% | residual activity [23] 100% | residual activity [24] 100% | residual activity [25] 100% | residual activity [26] 100% | residual activity [27] 67% | residual activity [28] 100% | residual activity [29] 100% | residual activity [30] 100% | residual activity [31] 77% | residual activity [32] 100% | residual activity [33] 100% | residual activity [34] 100% | residual activity [35] 100% | residual activity [36] 71% | residual activity [37] 100% | residual activity [38] 100% | residual activity [39] 100% | residual activity [40] 100% | residual activity [41] 100% | residual activity [42] 100% | inhibition [43] -2.5% | residual activity [44] 100% | residual activity [45] 100%
